The source of these data is publication PMC12246613, “Molecular basis of acyl-CoA ester recognition by α-methylacyl-CoA racemase from Mycobacterium tuberculosis” (The Journal of Biological Chemistry, 2025).

In series [1] the target is human AMACR 1A. As to conditions: cited from earlier work.
Series [2] deals with T1, MCR (α-methylacyl-CoA racemase from Mycobacterium tuberculosis) (Mycobacterium tuberculosis, UniProt O06543). In words: Kinetic assay (Ki and mode of inhibition, colorimetric assay). Type of series: biochemical. Further details: made in house. The procedure: Data was collected as previously described using ibuprofenoyl-CoA 1 at 0, 3.2, 10, and 32 μM, 3.12 nM MCR, and 50.2 to 576 μM substrate (final concentrations) in 50 mM NaH2PO4-NaOH, 100 mM NaCl, and 1 mM EDTA, pH 7.4 and 3% (v/v) DMSO. Enzyme and inhibitor stock solutions were pre-incubated together for 10 min before initiating the assay. Rates were determined using ICEKAT ([46], [47]), with logarithmic fit of the data and correction of rates for delays between reaction initiation and first read. Data was analyzed using SigmaPlot 15.0 using Simple EK and the enzyme kinetics macro, with the correct inhibition model selected using graphs (Fig. S19, A–G) and statistical ranking of models. The determined Ki value is the mean ± SEM for three independent repeats.
T1 sequence (O06543 whole entry): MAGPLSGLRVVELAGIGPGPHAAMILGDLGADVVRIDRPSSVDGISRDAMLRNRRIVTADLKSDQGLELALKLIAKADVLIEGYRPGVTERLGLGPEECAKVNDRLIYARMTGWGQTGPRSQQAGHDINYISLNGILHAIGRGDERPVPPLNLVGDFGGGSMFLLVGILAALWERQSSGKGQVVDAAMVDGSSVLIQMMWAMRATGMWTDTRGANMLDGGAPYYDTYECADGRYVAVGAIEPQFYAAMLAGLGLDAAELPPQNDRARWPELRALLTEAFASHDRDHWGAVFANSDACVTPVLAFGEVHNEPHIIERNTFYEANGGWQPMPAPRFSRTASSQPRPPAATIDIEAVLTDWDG

The target in series [3] is T1, MCR (α-methylacyl-CoA racemase from Mycobacterium tuberculosis). The experiment in a line: Jump-dilution experiment (reversibility of inhibition). Type of series: biochemical. Details: made in house. To be noted: 12-min time-course, inhibitor at 6x or 0.06x the IC50.
Series [4] has the same target. In words: Colorimetric inhibition assay, dose-response curves. To be noted: for Max % (coefficient): fitted maximum % activity; for Min % (coefficient): fitted minimum % activity; for Hillslope (coefficient): 4-parameter logistic fit; for pIC50 lower than expected based on LogP: from plot of pIC50 vs. calculated LogP.
The target is the same in series [5]. In words: Deuterium-exchange assay (substrate α-proton exchange, 1H NMR). Type of series: biochemical. Further details: made in house. To be noted: 100 μM acyl-CoA, 2.34 nM MCR, ca. 85% 2H2O, 30 °C. The procedure: Exchange of substrate α-protons was assessed using the deuterium-exchange assay as previously described ([19], [32]). Assay mixtures contained 55 ng (2.34 nM) of active or heat-inactivated MCR, 100 μM acyl-CoA, 50 mM NaH2PO4-NaOH, pH 7.4 and ca. 85% (v/v) ^2H2O in a total volume of 600 μl. Fenoprofenoyl-CoA 2 was used as a positive control. Reactions were initiated by the addition of enzyme, and reaction mixtures were incubated at 30 °C for 1 h before quenching at 55 °C for 10 min. NMR data were collected on a Bruker Avance Neo operating at 500.13 MHz for proton at 25 °C. Solvent suppression was achieved using a pre-saturation experiment. Typically, 128 transients were recorded. Data were processed using Topspin 4.0.7. Analysis of deuterium-exchange is based upon changes in intensity of either the substrate methine protons in the α-position or by the effects of the loss of those α-proton on a coupled methyl group.

In series [6] the test system is MCR. Details: method as in PMID 26759836. As to conditions: cited from earlier work.
Where [7] appears, read: LogIC50 (coefficient), individual independent repeats 1-3, 4-parameter logistic fit of mean % activity (2 technical repeats).
[8] abbreviates: individual independent repeats 1-3.
Setting [9] is: pIC50, mean ± SEM, n = 3, colorimetric assay, 96 μM substrate, 3.12 nM MCR, 10 min pre-incubation.

Molecules are shown by their SMILES. Values joined by “and” are separate entries in the source; they are usually repeats but may differ in a detail not shown here. Equal values may be shown once.

In the case of `CC(C)Cc1ccc(C(C)C(=O)SCCNC(=O)CCNC(=O)C(O)C(C)(C)COP(=O)(O)OP(=O)(O)OCC2OC(n3cnc4c(N)ncnc43)C(O)C2OP(=O)(O)O)cc1` (racemic) [compound 1, ±-Ibuprofenoyl-CoA], the inhibitory constant (Ki) (in general, a measure of affinity in units of concentration, obtained from inhibition or displacement) was 0.06 ± 0.00478 µM in series [1] (human AMACR 1A, mean ± SEM, n = 1); 3.06 µM and 2.44 µM and 3.62 µM in series [2] (individual repeats 1-3, inhibitor 0, 3.2, 10, 32 μM, 50.2 to 576 μM substrate); 3.04 ± 0.34 µM in series [2] (mean ± SEM, n = 3, competitive inhibition model). Also, the mode of inhibition result in series [2] (Lineweaver-Burk plot and statistical ranking of models) is “competitive inhibition”. In addition, the reversibility of inhibition entry in series [3] is “reversible inhibition”. The IC50 (in general, the concentration needed to halve the response being measured) in series [4] (setting [7]) is 10.9 µM and 8.94 µM and 7.48 µM; in series [4] (setting [9]), 8.91 µM. The “potency on MCR relative to human AMACR (fold less potent)” value in series [4] (MCR versus human AMACR) was roughly 20 fold. The “Max % (coefficient)” value in series [4] (setting [8]) was 105.5482% and 98.8641% and 101.2444%. Further, the “Min % (coefficient)” value in series [4] (setting [8]) was 2.6168% and 2.9187% and 2.6510%. Moreover, in series [4] (setting [8]), the “Hillslope (coefficient)” value was -0.9604 and -0.9180 and -0.9734.
For `CC(C(=O)SCCNC(=O)CCNC(=O)C(O)C(C)(C)COP(=O)(O)OP(=O)(O)OCC1OC(n2cnc3c(N)ncnc32)C(O)C1OP(=O)(O)O)c1cccc(Oc2ccccc2)c1` (racemic) [compound 2, ±-Fenoprofenoyl-CoA], the relative inhibitor potency result in series [1] (human AMACR) is reported as “most potent inhibitor”. The IC50 in series [4] (setting [7]) is 20.4 µM and 11.7 µM and 14.2 µM. In series [4] (setting [8]), the “Max % (coefficient)” value is 99.3868% and 110.2399% and 93.4385%; the “Min % (coefficient)” value was -1.0173% and 2.2137% and -0.7388%; the “Hillslope (coefficient)” value is -0.8331 and -0.7292 and -0.8187. In series [4] (setting [9]), 15.1 µM corresponded to half-maximal inhibition (IC50).
As for `CC(C(=O)SCCNC(=O)CCNC(=O)C(O)C(C)(C)COP(=O)(O)OP(=O)(O)OCC1OC(n2cnc3c(N)ncnc32)C(O)C1OP(=O)(O)O)c1ccc(-c2ccccc2)c(F)c1` (racemic) [compound 4, ±-Flurbiprofenoyl-CoA], in series [4] (setting [7]), the concentration for half-maximal inhibition (IC50) is 13.1 µM and 21.1 µM and 21.2 µM. Also, in series [4] (setting [8]), the “Max % (coefficient)” value is 97.7981% and 95.9188% and 94.6575%; the “Min % (coefficient)” value is 1.7221% and 0.8368% and 2.1053%; the “Hillslope (coefficient)” value is -0.9708 and -1.0277 and -1.0055. The compound further had an IC50 in series [4] (setting [9]) of 18.2 µM.
Take `CC(C(=O)SCCNC(=O)CCNC(=O)C(O)C(C)(C)COP(=O)(O)OP(=O)(O)OCC1OC(n2cnc3c(N)ncnc32)C(O)C1OP(=O)(O)O)c1cccc(C(=O)c2ccccc2)c1` (centres unmarked) [compound 3, S-Ketoprofenoyl-CoA]: the IC50 in series [4] (setting [7]) is 31.5 µM and 30.8 µM. Moreover, in series [4] (setting [8]), the “Max % (coefficient)” value was 100.4116% and 96.3493% and 103.0106%; the “Min % (coefficient)” value was -9.0253% and -2.7332% and -8.7722%; the “Hillslope (coefficient)” value was -0.6349 and -0.7776 and -0.7146. The “pIC50 lower than expected based on LogP” value in series [4] is listed as “approximately 0.3”. In series [4] (setting [9]), the IC50 was 31.6 µM.
As for `COc1ccc2cc(C(C)C(=O)SCCNC(=O)CCNC(=O)C(O)C(C)(C)COP(=O)(O)OP(=O)(O)OCC3OC(n4cnc5c(N)ncnc54)C(O)C3OP(=O)(O)O)ccc2c1` (centres unmarked) [compound 5, S-Naproxenoyl-CoA], the IC50 in series [4] (setting [7]) is 19.5 µM and 15.6 µM and 15.5 µM. Besides, in series [4] (setting [8]), the “Max % (coefficient)” value is 99.5824% and 102.2413% and 102.0390%; the “Min % (coefficient)” value was -0.6400% and -0.5309% and -2.7274%; the “Hillslope (coefficient)” value is -0.7858 and -0.8072 and -0.6833. Besides, in series [4], the “pIC50 lower than expected based on LogP” value is “approximately 0.3”. Also, in series [4] (setting [9]), the IC50 is 17 µM.
`CCCCCCCCC(C)C(=O)SCCNC(=O)CCNC(=O)[C@H](O)C(C)(C)COP(=O)(O)OP(=O)(O)OC[C@H]1O[C@@H](n2cnc3c(N)ncnc32)[C@H](O)[C@@H]1OP(=O)(O)O` (some centres unmarked) [compound 6, S-2-Methyldecanoyl-CoA]: in series [4] (setting [7]), the IC50 is 62.8 µM and 67.4 µM and 46.5 µM. In series [4] (setting [8]), the “Max % (coefficient)” value is 104.1285% and 101.8704% and 101.0137%; the “Min % (coefficient)” value was 10.2466% and 13.4630% and 9.4607%; the “Hillslope (coefficient)” value is -1.5837 and -2.4923 and -1.4587. The same compound showed an IC50 in series [4] (setting [9]) of 58.9 µM.
Regarding `CCCCCCCCCC(=O)SCCNC(=O)CCNC(=O)C(O)C(C)(C)COP(=O)(O)OP(=O)(O)OCC1OC(n2cnc3c(N)ncnc32)C(O)C1OP(=O)(O)O` (centres unmarked) [compound 7, Decanoyl-CoA], in series [4] (setting [9]), the IC50 was roughly 100 µM.
For `CCCCCCCC(=O)SCCNC(=O)CCNC(=O)C(O)C(C)(C)COP(=O)(O)OP(=O)(O)OCC1OC(n2cnc3c(N)ncnc32)C(O)C1OP(=O)(O)O` (centres unmarked) [compound 8, Octanoyl-CoA], the IC50 in series [4] (setting [9]) was roughly 100 µM.
In series [4] (setting [9]), `CCCCCC(=O)SCCNC(=O)CCNC(=O)C(O)C(C)(C)COP(=O)(O)OP(=O)(O)OCC1OC(n2cnc3c(N)ncnc32)C(O)C1OP(=O)(O)O` (centres unmarked) [compound 9, Hexanoyl-CoA] gave an IC50 of roughly 316 µM.
In series [4] (setting [9]), `CCCC(=O)SCCNC(=O)CCNC(=O)C(O)C(C)(C)COP(=O)(O)OP(=O)(O)OCC1OC(n2cnc3c(N)ncnc32)C(O)C1OP(=O)(O)O` (centres unmarked) [compound 10, n-Butanoyl-CoA] had a half-inhibitory concentration (IC50) of roughly 562 µM.
In series [4] (setting [9]), `CC(=O)SCCNC(=O)CCNC(=O)C(O)C(C)(C)COP(=O)(O)OP(=O)(O)OCC1OC(n2cnc3c(N)ncnc32)C(O)C1OP(=O)(O)O` (centres unmarked) [compound 11, Acetyl-CoA] gave an IC50 of roughly 1000 µM.
Turning to `CC(C)C(=O)SCCNC(=O)CCNC(=O)C(O)C(C)(C)COP(=O)(O)OP(=O)(O)OCC1OC(n2cnc3c(N)ncnc32)C(O)C1OP(=O)(O)O` (centres unmarked) [compound 12, Isobutanoyl-CoA], the α-proton exchange entry in series [5] is reported as “significant α-proton exchange”. For the same compound, the IC50 in series [4] (setting [9]) was roughly 1000 µM.
In the case of `CC(C)(COP(=O)(O)OP(=O)(O)OC[C@H]1O[C@@H](n2cnc3c(N)ncnc32)[C@H](O)[C@@H]1OP(=O)(O)O)[C@@H](O)C(=O)NCCC(=O)NCCSC(=O)C(c1ccccc1)c1ccccc1` [diphenylacetyl-CoA], in series [6], the α-proton exchange entry was “did not undergo α-proton exchange”.
